Laboratory results: US20250353820A1, “ANTIVIRAL PYRAZOLOPYRIDINONE COMPOUNDS” (Novartis AG, priority 2019, published 2025)

What follows are molecules tested against human HSV DNA polymerase UL30 (Human herpesvirus 1 (strain 17) (HHV-1) (Human herpes simplex virus 1), UniProt P04293) (assay: biochemical). Conditions: 625 pM HSV polymerase, 20 minutes at room temperature; read-out: HSV-polymerase Biochemical IC50.

Question: How did the IC50 turn out when `Cn1nc(C(=O)NCc2ccc(C#N)cn2)c2c1C(=O)N(CC1(S(=O)(=O)C3CC3)CC1)CC2` [Example 14, N-((5-Cyanopyridin-2-yl)methyl)-6-((1-(cyclopropylsulfonyl)cyclopropyl)methyl)-1-methyl-7-oxo-4,5,6,7-tetrahydro-1H-pyrazolo[3,4-c]pyridine-3-carboxamide] was run?
Answer: 1610 nM

Question: For `COc1cc(CNC(=O)c2nn(C)c3c2CCN(CC2(S(=O)(=O)C4CC4)CC2)C3=O)ccc1C#N` [Example 15, N-(4-Cyano-3-methoxybenzyl)-6-((1-(cyclopropylsulfonyl)cyclopropyl)methyl)-1-methyl-7-oxo-4,5,6,7-tetrahydro-1H-pyrazolo[3,4-c]pyridine-3-carboxamide], which IC50 is on record?
Answer: 385 nM

Question: With `C[C@H](NC(=O)c1nn(C)c2c1CCN(CC1(S(=O)(=O)C3CC3)CC1)C2=O)c1ccc(C#N)cc1` [Example 16, (S)-N-(1-(4-Cyanophenyl)ethyl)-6-((1-(cyclopropylsulfonyl)cyclopropyl)methyl)-1-methyl-7-oxo-4,5,6,7-tetrahydro-1H-pyrazolo[3,4-c]pyridine-3-carboxamide] as the molecule, how does the IC50 read?
Answer: 239 nM

Question: For `C[C@@H](NC(=O)c1nn(C)c2c1CCN(CC1(S(=O)(=O)C3CC3)CC1)C2=O)c1ccc(C#N)cc1` [Example 17, (R)-N-(1-(4-Cyanophenyl)ethyl)-6-((1-(cyclopropylsulfonyl)cyclopropyl)methyl)-1-methyl-7-oxo-4,5,6,7-tetrahydro-1H-pyrazolo[3,4-c]pyridine-3-carboxamide], which IC50 is on record?
Answer: > 25000 nM

Question: Which IC50 does the source give for `Cn1nc(C(=O)N[C@@H](CO)c2ccc(Cl)cc2)c2c1C(=O)N(CC1(S(=O)(=O)C3CC3)CC1)CC2` [Example 18, (R)-N-(1-(4-Chlorophenyl)-2-hydroxyethyl)-6-((1-(cyclopropylsulfonyl)cyclopropyl)methyl)-1-methyl-7-oxo-4,5,6,7-tetrahydro-1H-pyrazolo[3,4-c]pyridine-3-carboxamide] here?
Answer: 1060 nM

Question: How did the IC50 turn out when `Cn1nc(C(=O)N[C@H](CO)c2ccc(Cl)cc2)c2c1C(=O)N(CC1(S(=O)(=O)C3CC3)CC1)CC2` [Example 19, (S)-N-(1-(4-Chlorophenyl)-2-hydroxyethyl)-6-((1-(cyclopropylsulfonyl)cyclopropyl)methyl)-1-methyl-7-oxo-4,5,6,7-tetrahydro-1H-pyrazolo[3,4-c]pyridine-3-carboxamide] was run?
Answer: 8180 nM

Question: How did the IC50 turn out when `CCS(=O)(=O)C1(CN2CCc3c(C(=O)NCc4ccc(C#N)cc4)nn(C)c3C2=O)CC1` [Example 20, N-(4-Cyanobenzyl)-6-((1-(ethylsulfonyl)cyclopropyl)methyl)-1-methyl-7-oxo-4,5,6,7-tetrahydro-1H-pyrazolo[3,4-c]pyridine-3-carboxamide] was run?
Answer: 259 nM

Question: For `Cn1nc(C(=O)NCc2ccc(C#N)cc2)c2c1C(=O)N(CC1(S(C)(=O)=O)CC1)CC2` [Example 21, N-(4-Cyanobenzyl)-1-methyl-6-((1-(methylsulfonyl)cyclopropyl)methyl)-7-oxo-4,5,6,7-tetrahydro-1H-pyrazolo[3,4-c]pyridine-3-carboxamide], which IC50 is on record?
Answer: 517 nM

Question: With `Cn1nc(C(=O)NCc2ccc(Cl)cc2)c2c1C(=O)N(CC1(S(C)(=O)=O)CC1)CC2` [Example 22, N-(4-Chlorobenzyl)-1-methyl-6-((1-(methylsulfonyl)cyclopropyl)methyl)-7-oxo-4,5,6,7-tetrahydro-1H-pyrazolo[3,4-c]pyridine-3-carboxamide] as the molecule, how does the IC50 read?
Answer: 436 nM

Question: How did the IC50 turn out when `Cn1nc(C(=O)NCc2ccc(C#N)c(F)c2)c2c1C(=O)N(CC1(S(C)(=O)=O)CC1)CC2` [Example 23, N-(4-Cyano-3-fluorobenzyl)-1-methyl-6-((1-(methylsulfonyl)cyclopropyl)methyl)-7-oxo-4,5,6,7-tetrahydro-1H-pyrazolo[3,4-c]pyridine-3-carboxamide] was run?
Answer: 345 nM

Question: With `Cn1nc(C(=O)OCc2ccc(C#N)cc2)c2c1C(=O)N(CC1(S(=O)(=O)C3CC3)CC1)CC2` [Example 24, 4-cyanobenzyl 6-((1-(cyclopropylsulfonyl)cyclopropyl)methyl)-1-methyl-7-oxo-4,5,6,7-tetrahydro-1H-pyrazolo[3,4-c]pyridine-3-carboxylate] as the molecule, how does the IC50 read?
Answer: 467 nM

Question: For `Cn1nc(C(=O)COc2ccc(C#N)cc2)c2c1C(=O)N(CC1(S(=O)(=O)C3CC3)CC1)CC2` [Example 25, 4-(2-(6-((1-(cyclopropylsulfonyl)cyclopropyl)methyl)-1-methyl-7-oxo-4,5,6,7-tetrahydro-1H-pyrazolo[3,4-c]pyridin-3-yl)-2-oxoethoxy)benzonitrile], which IC50 is on record?
Answer: 53 nM

Question: `Cn1nc(-c2nnc(Cc3ccc(C#N)cc3)o2)c2c1C(=O)N(CC1(S(=O)(=O)C3CC3)CC1)CC2` [Example 26, 4-((5-(6-((1-(Cyclopropylsulfonyl)cyclopropyl)methyl)-1-methyl-7-oxo-4,5,6,7-tetrahydro-1H-pyrazolo[3,4-c]pyridin-3-yl)-1,3,4-oxadiazol-2-yl)methyl)benzonitrile] was tested. Which IC50 did it give?
Answer: 3960 nM

Question: How did the IC50 turn out when `Cn1nc(-c2noc(Cc3ccc(C#N)cc3)n2)c2c1C(=O)N(CC1(S(=O)(=O)C3CC3)CC1)CC2` [Example 28, 4-((3-(6-((1-(Cyclopropylsulfonyl)cyclopropyl)methyl)-1-methyl-7-oxo-4,5,6,7-tetrahydro-1H-pyrazolo[3,4-c]pyridin-3-yl)-1,2,4-oxadiazol-5-yl)methyl)benzonitrile] was run?
Answer: 29 nM

Question: For `Cn1nc(-c2nnn(Cc3ccc(C#N)cc3)n2)c2c1C(=O)N(CC1(S(=O)(=O)C3CC3)CC1)CC2` [Example 29, 4-((5-(6-((1-(Cyclopropylsulfonyl)cyclopropyl)methyl)-1-methyl-7-oxo-4,5,6,7-tetrahydro-1H-pyrazolo[3,4-c]pyridin-3-yl)-2H-tetrazol-2-yl)methyl)benzonitrile], which IC50 is on record?
Answer: 86 nM

Question: With `Cn1nc(-c2nnnn2Cc2ccc(C#N)cc2)c2c1C(=O)N(CC1(S(=O)(=O)C3CC3)CC1)CC2` [Example 30, 4-((5-(6-((1-(cyclopropylsulfonyl)cyclopropyl)methyl)-1-methyl-7-oxo-4,5,6,7-tetrahydro-1H-pyrazolo[3,4-c]pyridin-3-yl)-1H-tetrazol-1-yl)methyl)benzonitrile] as the molecule, how does the IC50 read?
Answer: 6240 nM

Question: Which IC50 does the source give for `Cn1nc(C2=NOC(c3ccc(C#N)cc3)C2)c2c1C(=O)N(CC1(S(=O)(=O)C3CC3)CC1)CC2` (stereo not drawn) [Example 31, 4-(3-(6-((1-(Cyclopropylsulfonyl)cyclopropyl)methyl)-1-methyl-7-oxo-4,5,6,7-tetrahydro-1H-pyrazolo[3,4-c]pyridin-3-yl)-4,5-dihydroisoxazol-5-yl)benzonitrile] here?
Answer: 293 nM

Question: How did the IC50 turn out when `Cn1nc(-c2cc(Cc3ccc(C#N)cc3)on2)c2c1C(=O)N(CC1(S(=O)(=O)C3CC3)CC1)CC2` [Example 34, 4-((3-(6-((1-(Cyclopropylsulfonyl)cyclopropyl)methyl)-1-methyl-7-oxo-4,5,6,7-tetrahydro-1H-pyrazolo[3,4-c]pyridin-3-yl)isoxazol-5-yl)methyl)benzonitrile] was run?
Answer: 10 nM

Question: `Cn1nc(-c2cn(Cc3ccc(C#N)cc3)nn2)c2c1C(=O)N(CC1(S(=O)(=O)C3CC3)CC1)CC2` [Example 35, 4-((4-(6-((1-(Cyclopropylsulfonyl)cyclopropyl)methyl)-1-methyl-7-oxo-4,5,6,7-tetrahydro-1H-pyrazolo[3,4-c]pyridin-3-yl)-1H-1,2,3-triazol-1-yl)methyl)benzonitrile] was tested. Which IC50 did it give?
Answer: 141 nM

Question: `Cn1nc(C(=O)NCc2ccc(Cl)cc2)c2c1C(=O)N(CC1(S(=O)(=O)C(F)F)CC1)CC2` [Example 39, N-(4-Chlorobenzyl)-6-((1-((difluoromethyl)sulfonyl)cyclopropyl)methyl)-1-methyl-7-oxo-4,5,6,7-tetrahydro-1H-pyrazolo[3,4-c]pyridine-3-carboxamide] was tested. Which IC50 did it give?
Answer: 625 nM

Question: With `N#Cc1ccc(CNC(=O)c2nn(C3CC3)c3c2CCN(CC2(S(=O)(=O)C4CC4)CC2)C3=O)cc1` [Example 43, N-(4-Cyanobenzyl)-1-cyclopropyl-6-((1-(cyclopropylsulfonyl)cyclopropyl)methyl)-7-oxo-4,5,6,7-tetrahydro-1H-pyrazolo[3,4-c]pyridine-3-carboxamide] as the molecule, how does the IC50 read?
Answer: 101 nM

Question: How did the IC50 turn out when `O=C(NCc1ccc(Cl)cc1)c1n[nH]c2c1CCN(CC1(S(=O)(=O)C3CC3)CC1)C2=O` [Example 44, N-(4-Chlorobenzyl)-6-((1-(cyclopropylsulfonyl)cyclopropyl)methyl)-7-oxo-4,5,6,7-tetrahydro-1H-pyrazolo[3,4-c]pyridine-3-carboxamide] was run?
Answer: 137 nM

Question: Which IC50 does the source give for `CS(=O)(=O)C1(CN2CCc3c(nn4c3C(=O)N(Cc3ccc(C#N)cc3)CC4)C2=O)CC1` [Example 46, 4-((8-((1-(Methylsulfonyl)cyclopropyl)methyl)-1,7-dioxo-3,4,7,8,9,10-hexahydropyrido[3′,4′: 3,4]pyrazolo[1,5-a]pyrazin-2 (1H)-yl)methyl)benzonitrile] here?
Answer: 1780 nM

Question: How did the IC50 turn out when `N#Cc1ccc(CNC(=O)c2nn(CC3(CO)CC3)c3c2CCN(CC2(S(=O)(=O)C4CC4)CC2)C3=O)cc1` [Example 47, N-(4-Cyanobenzyl)-6-((1-(cyclopropylsulfonyl)cyclopropyl)methyl)-1-((1-(hydroxymethyl)cyclopropyl)methyl)-7-oxo-4,5,6,7-tetrahydro-1H-pyrazolo[3,4-c]pyridine-3-carboxamide] was run?
Answer: 59 nM

Question: With `CS(=O)(=O)C1(CN2CCc3c(C(=O)NCc4ccc(C#N)cc4)nn(CC4(CO)CC4)c3C2=O)CC1` [Example 48, N-(4-Cyanobenzyl)-1-((1-(hydroxymethyl)cyclopropyl)methyl)-6-((1-(methylsulfonyl)cyclopropyl)methyl)-7-oxo-4,5,6,7-tetrahydro-1H-pyrazolo[3,4-c]pyridine-3-carboxamide] as the molecule, how does the IC50 read?
Answer: 801 nM

Question: With `CC(C)(CO)S(=O)(=O)C1(CN2CCc3c(C(=O)NCc4ccc(C#N)cc4)n[nH]c3C2=O)CC1` [Example 49, N-(4-cyanobenzyl)-6-((1-((1-hydroxy-2-methylpropan-2-yl)sulfonyl)cyclopropyl)methyl)-7-oxo-4,5,6,7-tetrahydro-1H-pyrazolo[3,4-c]pyridine-3-carboxamide] as the molecule, how does the IC50 read?
Answer: 37 nM

Question: For `Cn1nc(C(=O)NCc2ccc(Cl)cc2)c2c1C(=O)N(CC1(S(=O)(=O)C(C)(C)CO)CC1)CC2` [Example 50, N-(4-Chlorobenzyl)-6-((1-((1-hydroxy-2-methylpropan-2-yl)sulfonyl)cyclopropyl)methyl)-1-methyl-7-oxo-4,5,6,7-tetrahydro-1H-pyrazolo[3,4-c]pyridine-3-carboxamide], which IC50 is on record?
Answer: 16 nM
